Laboratory results taken from patent US20070203066A1, “Compositions and methods for inhibiting cellular proliferation” (priority 2005, published 2007).
Non-standard residues stand in square brackets, D forms with d. Primed or numbered codes have the meaning given here. No end group written: not given here. Ida = iminodiacetic acid linker, its two carboxyls bind the Lys side-chain amines of two peptides, giving a homodimer; Ida(3) = iminodiacetic acid linker, Lys side-chain amines bound to its two carboxyl groups; Ida(4) = iminodiacetic acid linker (dimerization linker bound to lysine side chain); Ida″ = iminodiacetic acid linker bound to the Lys side-chain amine, forming a dimer; Dip = N[C@H](C(=O)O)C(c1ccccc1)c1ccccc1; d(hPhe) = N[C@H](CCc1ccccc1)C(=O)O; Ahx = NCCCCCC(=O)O

System: HUVECs
Format: cell-based
Details: HUVEC proliferation, bFGF at 10 ng/ml or VEGF at 5 ng/ml, 48 hours, BrdU incorporation; read-out: IC50 on HUVECs
Procedure: HUVECs were routinely cultured to near confluency in EGM media (Clontech, Mountain View, California). The cells were trypsinized and plated in a 96-well plate at 5,000 cells per well per 100 μl EBM supplemented with 2% FCS and antibiotics. The cells were allowed to adhere to the plate for at least 12 hours. Then, bFGF at 10 ng/ml or VEGF at 5 ng/ml, and various concentrations of peptide, were added to the wells. The cells were cultured for 48 hours at 37 ° C. in a 5% CO2 atmosphere. Cell proliferation was determined using a bromo-deoxyuridine (BrdU) incorporation method as described by the manufacturer. Inhibition of cell proliferation was assessed by BrdU incorporation.

| Substance | IC50 |
| --- | --- |
| 405 (Ac-LRRRRQAVAIYFK(Ida(3))-NH2; also: homodimer via Ida linker on Lys13 side chain, Boc on Ida amine) [compound 405] | < 10 µM |
| 273 (Ac-RARRRQAVAITFK-NH2; not fully specified (residue 13); also: homodimer: Lys13 side chain bound to Ida linker) [compound 273] | < 10 µM |
| 373 (Ac-ARRRRQRVA[d(hPhe)]YFK(Ida(3))-NH2; also: homodimer via Ida linker on Lys13 side chain, Boc on Ida amine) [compound 373] | 10 to 30 µM |
| 317 (Ac-ARRRRQHVAIYFK(Ida)-NH2; also: homodimer via Ida linker on Lys13 side chain) [compound 317] | < 10 µM |
| 310 (Ac-RRRRRQK(Ida)VRIIFV; also: homodimer via Ida linker on Lys7 side chain) [compound 310] | < 10 µM |
| 316 (Ac-ARRRRQAVHIYFK(Ida)-NH2; also: homodimer via Ida linker on Lys13 side chain) [compound 316] | < 10 µM |
| 466 (Ac-AK(Ida(3))RRRQAVAIYF; also: homodimer via Ida linker on Lys2 side chain) [compound 466] | > 30 µM |
| 28 (Ac-RTRRRRRRQRVRIAYEEIFVRNM[Ahx]K-NH2; not fully specified (residue 25); also: homodimer via Ida linker on Lys25 side chain, Ida amino group carries Boc) [compound 28] | < 10 µM |
| 364 (Ac-ARRRRQRVAEYFK-NH2; not fully specified (residue 13); also: homodimer of residues 1-13 via Ida linker on K13 side chain) [compound 364] | > 30 µM |
| KTKRKRKKQRVKIIFAQNM [compound 108] | 10 to 30 µM |
| 485 (Ac-ARRRPQAVAIKF; not fully specified (residue 11); also: homodimer: Lys11 side chain bound to Ida linker (Boc on Ida N)) [compound 485] | < 10 µM |
| 423 (Ac-ARRRRQRVAIKFV; not fully specified (residue 11); also: homodimer of residues 1-13 via Ida linker on K11 side chain) [compound 423] | < 10 µM |
| 371 (Ac-ARRRRQRVAYYFK-NH2; not fully specified (residue 13); also: homodimer via Ida linker on Lys13 side chain, Boc on Ida amine) [compound 371] | < 10 µM |
| KTKRKRKKQRVKIAYEEIF [compound 16] | 10 to 30 µM |
| 346 (Ac-ARRRRQRVAIYEK-NH2; not fully specified (residue 13); also: homodimer of residues 1-13 via Ida linker on Lys13 side chain) [compound 346] | > 30 µM |
| 367 (Ac-ARRRRQRVAPYFK-NH2; not fully specified (residue 13); also: homodimer of residues 1-13 via Ida linker on K13 side chain) [compound 367] | > 30 µM |
| 302 (Ac-RRRRRQAVRIAIAFK(Ida)-NH2; also: homodimer via Ida linker on Lys15 side chain) [compound 302] | < 10 µM |
| 402 (Ac-FRRRRQAVAIYFK(Ida(3))-NH2; also: homodimer via Ida linker on Lys13 side chain, Ida amine Boc) [compound 402] | < 10 µM |
| RVKIAYEEIFVQNM [compound 44] | > 30 µM |
| 225 (Ac-ARRRRQRVAINFK; also: homodimer via Ida linker on side chain of Lys13) [compound 225] | < 10 µM |
| YGRKKRRQRRR [compound 445] | > 30 µM |
| 380 (Ac-ARRRRQEVAIYFK-NH2; not fully specified (residue 13); also: homodimer via Ida linker on Lys13 side chain, Ida amine Boc) [compound 380] | < 10 µM |
| 238 (Ac-RHRRRQHVRIIF; also: dimer via C-terminal Phe to Lys linker) [compound 238] | < 10 µM |
| TKRKRKKQRVKIAYEEIFV [compound 60] | 10 to 30 µM |
| 323 (Ac-RHRRRQHVRIYFK(Ida)-NH2; also: homodimer via Ida linker on Lys13 side chain) [compound 323] | < 10 µM |
| 387 (Ac-ARRRRQAVEIYFK-NH2; not fully specified (residue 13); also: homodimer via Ida linker on Lys13 side chain, Ida amine Boc) [compound 387] | < 10 µM |
| 470 (Ac-PRRRDQAVAIYFK(Ida(3)); not fully specified (C-terminus); also: homodimer via Ida linker on Lys13 side chain) [compound 470] | > 30 µM |

| Substance | IC50 |
| --- | --- |
| KTKRKRKKQRVKIAYVQNM [compound 39] | 10 to 30 µM |
| 306 (Ac-RRRRRQAVRIK(Ida)FV; also: homodimer via Ida linker on Lys11 side chain) [compound 306] | < 10 µM |
| 350 (Ac-ARRRRQRVAIY[Dip]K-NH2; not fully specified (residue 13); also: homodimer of residues 1-13 via Ida linker on K13 side chain) [compound 350] | < 10 µM |
| KTKRKRKKARVKIIFVQNM [compound 115] | < 10 µM |
| 169 (Ac-KRRRRRQRVRIIF; also: homodimer via Ida linker on Lys1 side chains) [compound 169] | < 10 µM |
| 205 (Ac-RRARRQRVAIIF; also: dimer: Phe C-termini joined via Lys linker) [compound 205] | < 10 µM |
| 231 (XRRHRQRVRIIF; Xaa = Acylated Histidine; Dimeric peptide wherein the C terminus of Phe in position 12 of one peptide chain is covalently bound to one of the amino groups of a Lysine linker and Phe of the remaining peptide chain is covalently bound to the other amino group of the Lysine linker.) [compound 231] | < 10 µM |
| 478 (Ac-PRRRTQAVAIYFK(Ida(3)); not fully specified (C-terminus); also: homodimer via Ida linker on Lys13 side chain) [compound 478] | 10 to 30 µM |
| 170 (Ac-RRRRRQRVRIIFK; also: homodimer via Ida-PEG 20 kDa linker on Lys13 side chains) [compound 170] | < 10 µM |
| KTKAKRKKQRVKIIFVQNM [compound 120] | < 10 µM |
| 202 (Ac-RRAARQRVRIIF; also: dimer: C-terminal Phe bound to an amino group of a Lys linker, 2 chains per Lys) [compound 202] | < 10 µM |
| 502 (Ac-PRRHRQAVAIYFK; not fully specified (residue 13, C-terminus); also: homodimer via Ida linker on Lys13 side chain) [compound 502] | 10 to 30 µM |
| 193 (Ac-ARRARQRVRIIF; also: dimer: C-terminal Phe bound to an amino group of a Lys linker, 2 chains per Lys) [compound 193] | < 10 µM |
| RKKQRVKIAYEEIFVKNM [compound 11] | > 30 µM |
| KTKRKRKKQRVKIIFVQNM [compound 33] | < 10 µM |
| 510 (Ac-ARRRRERVAIYFK; not fully specified (C-terminus); also: homodimer via Ida linker at Lys13 side chain) [compound 510] | < 10 µM |
| 256 (Ac-ARRRRQRV[dA]IIFK; not fully specified (C-terminus); also: homodimer: side chain of Lys13 bound to an Ida linker) [compound 256] | < 10 µM |
| 363 (Ac-ARRRRQRVAWYFK-NH2; not fully specified (residue 13); also: homodimer of residues 1-13 via Ida linker on K13 side chain) [compound 363] | < 10 µM |
| 443 (Ac-RRRRWQAVAIYFK(Ida(4)); not fully specified (C-terminus); also: homodimer via Ida linker at K13) [compound 443] | < 10 µM |
| 496 (Ac-PRHRRQAVAIYFK(Ida″); not fully specified (C-terminus); also: homodimer via Ida linker on Lys13 side chain) [compound 496] | 10 to 30 µM |
| RKRKKQRVKIAYEEIFVKNM [compound 4] | 10 to 30 µM |
| 494 (Ac-PRNRRQAVAIYFK(Ida″); not fully specified (C-terminus); also: homodimer via Ida linker on Lys13 side chain) [compound 494] | 10 to 30 µM |
| KTKRKRKKQRVKIAY [compound 36] | > 30 µM |
| 366 (Ac-ARRRRQRVAHYFK-NH2; not fully specified (residue 13); also: homodimer of residues 1-13 via Ida linker on K13 side chain) [compound 366] | > 30 µM |
| 244 (Ac-RRRHRQHVRIIF; also: homodimer: C-termini of two chains bound to the two amines of a Lys linker) [compound 244] | < 10 µM |
| TKRKRKKQRVKIAYEEIFVKNM [compound 2] | 10 to 30 µM |
